From ChEMBL document CHEMBL3272016, “Potential inhibitors of collagen biosynthesis. 5,5-Difluoro-DL-lysine and 5,5-dimethyl-DL-lysine and their activation by lysyl-tRNA ligase” (J Med Chem, 1977)
Calls of active or inactive are those of the source. The calls are words filed in the database; no cut-off is given here.

Assays:
P388 [1] = experiment: Cytotoxicity against mouse P388 cells assessed as growth inhibition at 0.15 mM after 72 hrs by hemocytometry; assay type: functional; conditions: P388, 72 h, read-out: GI
[2] = Dissociation constant, pKa of the compound; assay type: physicochemical
L929 = experiment: Inhibition of collagen biosynthesis in mouse L929 fibroblasts assessed as [3H]lysine/[14C]proline incorporation into protein at 5 mM; assay type: functional, cell-based
Mus musculus [3] = organism: Mus musculus; experiment: Inhibition of peptidyl lysine hydroxylase in mouse L929 fibroblasts assessed as release of [3H] as [3H]OH from [4,5-3H]lysylprotocollagen measured per mg of protein at 0.01 mM (reference value: 1228 cpm)
Mus musculus [4] = organism: Mus musculus; experiment: Inhibition of peptidyl lysine hydroxylase in mouse L929 fibroblasts assessed as release of [3H] as [3H]OH from [4,5-3H]lysylprotocollagen measured per mg of protein at 0.05 mM (reference value: 1228 cpm)
Mus musculus [5] = organism: Mus musculus; experiment: Inhibition of peptidyl lysine hydroxylase in mouse L929 fibroblasts assessed as release of [3H] as [3H]OH from [4,5-3H]lysylprotocollagen measured per mg of protein at 0.10 mM (reference value: 1228 cpm)
Mus musculus [6] = organism: Mus musculus; experiment: Inhibition of peptidyl lysine hydroxylase in mouse L929 fibroblasts assessed as release of [3H] as [3H]OH from [4,5-3H]lysylprotocollagen measured per mg of protein at 0.20 mM (reference value: 1228 cpm)
Mus musculus [7] = organism: Mus musculus; experiment: Inhibition of peptidyl lysine hydroxylase in mouse L929 fibroblasts assessed as release of [3H] as [3H]OH from [4,5-3H]lysylprotocollagen measured per mg of protein at 1 mM (reference value: 1228 cpm)
Mus musculus [8] = organism: Mus musculus; experiment: Inhibition of peptidyl lysine hydroxylase in mouse L929 fibroblasts assessed as release of [3H] as [3H]OH from [4,5-3H]lysylprotocollagen measured per mg of protein at 2 mM (reference value: 1228 cpm)
Mus musculus [9] = organism: Mus musculus; experiment: Inhibition of peptidyl lysine hydroxylase in mouse L929 fibroblasts assessed as release of [3H] as [3H]OH from [4,5-3H]lysylprotocollagen measured per mg of protein at 5 mM (reference value: 1228 cpm)
Mus musculus [10] = organism: Mus musculus; experiment: Inhibition of peptidyl lysine hydroxylase in mouse L929 fibroblasts
P388 [11] = experiment: Cytotoxicity against mouse P388 cells assessed as growth inhibition at 0.55 mM after 72 hrs by hemocytometry; assay type: functional, cell-based
P388 [12] = experiment: Cytotoxicity against mouse P388 cells assessed as growth inhibition at 0.5 mM after 72 hrs by hemocytometry; assay type: functional; conditions: P388, 72 h, read-out: GI
[13] = Competitive inhibition of Escherichia coli B lysyl-tRNA ligase using lysine as substrate after 15 mins by double reciprocal plot analysis; conditions: read-out: Ki(app)

Description for Escherichia coli B: Activity of Escherichia coli B lysyl-tRNA ligase after 15 mins by Lineweaver-Burk plot analysis

For `NC(=O)NO` [HYDROXYUREA], the inhibition of growth at 150 µM (P388 [1]) was 87%.
For `NCC(F)(F)CCC(N)C(=O)O` (racemic), the pKa [2] was 6.88, the Activity (L929) was “inactive” and the Activity (Mus musculus [3]) was 1220 cpm. The Activity (Mus musculus [4]) was 1270 cpm, the Activity (Mus musculus [5]) was 1230 cpm and the Activity (Mus musculus [6]) was 1270 cpm. For the same molecule, the Activity (Mus musculus [7]) was 1070 cpm, the Activity (Mus musculus [8]) was 1080 cpm and the Activity (Mus musculus [9]) was 920 cpm. For the same molecule, the inhibition (Mus musculus [10]) was “inactive”, the “growth inhibition (GI)” value (P388 [11]) was “inactive” and the Km (Escherichia coli B) was 1310 µM.
`NCCSC[C@H](N)C(=O)O` gave a pKa [2] of 9.52, an inhibition of growth at 500 µM (P388 [12]) of 93% and a Km (Escherichia coli B) of 1.4 µM.
For `CC(C)(CN)CCC(N)C(=O)O` (racemic), the pKa [2] was 10.2, the Ki [13] was 16.2 mM and the “growth inhibition (GI)” value (P388 [11]) was “inactive”.
For `NCCCC[C@H](N)C(=O)O` [LYSINE], the pKa [2] was 10.6 and the Km (Escherichia coli B) was 0.5 µM.
